A word on the mass density: it is the mass of a sample divided by its volume. What is called vapor or sublimation pressure is the equilibrium pressure above the liquid or solid. Usually refractive index stands for the speed of light in vacuum divided by its phase velocity in the sample.

Each structure is given as a SMILES string. ± gives the expanded uncertainty stated by the source.

Consider three compounds from the NIST ThermoML archive (doi:10.1016/j.jct.2005.12.003).

For data set [1] the following is noted: Liquid; for mass density: 298.15 K, 101.33 kPa; for vapor or sublimation pressure: refractive and density measurements.
A short description of data set [2]: refractive index (Na D-line) (dimensionless). To be noted: 298.15 K; 101.33 kPa; Liquid; Standard Abbe refractometry.

Regarding `c1ccccc1` [benzene], in data set [1], the mass density was 873.6 ± 0.2 kg/m3. Moreover, the “vapor or sublimation pressure” value in data set [1] (353.25 K) is recorded as 101.3 kPa. The refractive index in data set [2] was 1.49692 ± 0.00072.

On to `Clc1ccccc1` [chlorobenzene], for which the mass density in data set [1] is 1100.8 ± 0.5 kg/m3. In addition, the “vapor or sublimation pressure” value in data set [1] (404.82 K) was 101.3 kPa. The refractive index in data set [2] was determined as 1.52176 ± 0.00075.

In the case of `C1CCCCC1` [cyclohexane], the mass density in data set [1] is given as 773.7 ± 0.3 kg/m3. Also, the “vapor or sublimation pressure” value in data set [1] (353.89 K) stood at 101.3 kPa. For the same compound, the refractive index in data set [2] worked out at 1.4232 ± 0.00072.
